As usually defined, the viability, T/C is the ratio of treated to control.
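Also: spheroids exposed to compounds for seven days; 100% = DMSO vehicle control viability.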

One experiment has as its system 889142-216-R-J1-PDC complex spheroid viability. Kind of experiment: Anticancer human tumor 889142-216-R-J1-PDC patient-derived bladder carcinoma cell line growth inhibition [POLQ]. As to conditions: second compound 0.316 µM; first compound 0.316 µM; active compounds read low. The essentials: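 Three-cell-type spheroids modelling solid tumor plus stroma served as the readout system; POL inhibitors were tested individually and in combination, concentration ranges set by clinical Cmax where known.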
`COc1cccc(OCCCN)c1-c1cc(Nc2cnc(C#N)cn2)n[nH]1` + Nc1ccc(C#CCN(C(=O)Cc2ncc(C(F)(F)F)cc2C(F)(F)F)c2ccc(F)cc2)nn1: the viability, T/C was 56.8%.
Consider `O=C(c1cc(Cc2n[nH]c(=O)c3ccccc23)ccc1F)N1CCN(C(=O)C2CC2)CC1` + Nc1ccc(C#CCN(C(=O)Cc2ncc(C(F)(F)F)cc2C(F)(F)F)c2ccc(F)cc2)nn1, for which the viability, T/C is 85.2%.

The experiment is the same for the next values; noted with them: second compound 0.316 µM; first compound 1 µM; active compounds read low.
For `CC1COCCN1c1cc(C2(S(C)(=N)=O)CC2)nc(-c2ccnc3[nH]ccc23)n1` (configuration not stated) + Nc1ccc(C#CCN(C(=O)Cc2ncc(C(F)(F)F)cc2C(F)(F)F)c2ccc(F)cc2)nn1, the viability, T/C was 60.9%.
Regarding `CCCS(=O)(=O)Nc1ccc(F)c(C(=O)c2c[nH]c3ncc(-c4ccc(Cl)cc4)cc23)c1F` + Nc1ccc(C#CCN(C(=O)Cc2ncc(C(F)(F)F)cc2C(F)(F)F)c2ccc(F)cc2)nn1, the viability, T/C is 78.6%.
Take `COc1cccc(OCCCN)c1-c1cc(Nc2cnc(C#N)cn2)n[nH]1` + Nc1ccc(C#CCN(C(=O)Cc2ncc(C(F)(F)F)cc2C(F)(F)F)c2ccc(F)cc2)nn1: the viability, T/C is 43.6%.
Still for that read-out and setting: the same measure for `O=C(c1cc(Cc2n[nH]c(=O)c3ccccc23)ccc1F)N1CCN(C(=O)C2CC2)CC1` + Nc1ccc(C#CCN(C(=O)Cc2ncc(C(F)(F)F)cc2C(F)(F)F)c2ccc(F)cc2)nn1: 104%.

The experiment is the same for the next values; noted with them: second compound 0.316 µM; first compound 3.16 µM; active compounds read low.
For `CC1COCCN1c1cc(C2(S(C)(=N)=O)CC2)nc(-c2ccnc3[nH]ccc23)n1` (configuration not stated) + Nc1ccc(C#CCN(C(=O)Cc2ncc(C(F)(F)F)cc2C(F)(F)F)c2ccc(F)cc2)nn1, the viability, T/C was 48.9%.
With `CCCS(=O)(=O)Nc1ccc(F)c(C(=O)c2c[nH]c3ncc(-c4ccc(Cl)cc4)cc23)c1F` + Nc1ccc(C#CCN(C(=O)Cc2ncc(C(F)(F)F)cc2C(F)(F)F)c2ccc(F)cc2)nn1, the viability, T/C is 80.3%.
`O=C(c1cc(Cc2n[nH]c(=O)c3ccccc23)ccc1F)N1CCN(C(=O)C2CC2)CC1` + Nc1ccc(C#CCN(C(=O)Cc2ncc(C(F)(F)F)cc2C(F)(F)F)c2ccc(F)cc2)nn1: the viability, T/C was 97.5%.

The experiment is the same for the next values; noted with them: second compound 0.316 µM; first compound 10 µM; active compounds read low.
Consider `CC1COCCN1c1cc(C2(S(C)(=N)=O)CC2)nc(-c2ccnc3[nH]ccc23)n1` (configuration not stated) + Nc1ccc(C#CCN(C(=O)Cc2ncc(C(F)(F)F)cc2C(F)(F)F)c2ccc(F)cc2)nn1, for which the viability, T/C is 51.8%.
As to `CCCS(=O)(=O)Nc1ccc(F)c(C(=O)c2c[nH]c3ncc(-c4ccc(Cl)cc4)cc23)c1F` + Nc1ccc(C#CCN(C(=O)Cc2ncc(C(F)(F)F)cc2C(F)(F)F)c2ccc(F)cc2)nn1, the viability, T/C is 40.6%.
On to `O=C(c1cc(Cc2n[nH]c(=O)c3ccccc23)ccc1F)N1CCN(C(=O)C2CC2)CC1` + Nc1ccc(C#CCN(C(=O)Cc2ncc(C(F)(F)F)cc2C(F)(F)F)c2ccc(F)cc2)nn1, for which the viability, T/C was 59.7%.

Staying with this experiment, now noted: second compound 1 µM; first compound 0.00316 µM; active compounds read low.
For `COc1cccc(OCCCN)c1-c1cc(Nc2cnc(C#N)cn2)n[nH]1` + Nc1ccc(C#CCN(C(=O)Cc2ncc(C(F)(F)F)cc2C(F)(F)F)c2ccc(F)cc2)nn1, the viability, T/C was 79.1%.

The same experiment, now with this note: second compound 1 µM; first compound 0.01 µM; active compounds read low.
For `COc1cccc(OCCCN)c1-c1cc(Nc2cnc(C#N)cn2)n[nH]1` + Nc1ccc(C#CCN(C(=O)Cc2ncc(C(F)(F)F)cc2C(F)(F)F)c2ccc(F)cc2)nn1, the viability, T/C was 68%.

Still in this experiment, the particulars now being: second compound 1 µM; first compound 0.0316 µM; active compounds read low.
Take `CC1COCCN1c1cc(C2(S(C)(=N)=O)CC2)nc(-c2ccnc3[nH]ccc23)n1` (configuration not stated) + Nc1ccc(C#CCN(C(=O)Cc2ncc(C(F)(F)F)cc2C(F)(F)F)c2ccc(F)cc2)nn1: the viability, T/C is 81.8%.
Consider `CCCS(=O)(=O)Nc1ccc(F)c(C(=O)c2c[nH]c3ncc(-c4ccc(Cl)cc4)cc23)c1F` + Nc1ccc(C#CCN(C(=O)Cc2ncc(C(F)(F)F)cc2C(F)(F)F)c2ccc(F)cc2)nn1, for which the viability, T/C was 105%.
Turning to `COc1cccc(OCCCN)c1-c1cc(Nc2cnc(C#N)cn2)n[nH]1` + Nc1ccc(C#CCN(C(=O)Cc2ncc(C(F)(F)F)cc2C(F)(F)F)c2ccc(F)cc2)nn1, the viability, T/C is 50%.
On to `O=C(c1cc(Cc2n[nH]c(=O)c3ccccc23)ccc1F)N1CCN(C(=O)C2CC2)CC1` + Nc1ccc(C#CCN(C(=O)Cc2ncc(C(F)(F)F)cc2C(F)(F)F)c2ccc(F)cc2)nn1, for which the viability, T/C is 152%.

The same experiment, now with this note: second compound 1 µM; first compound 0.1 µM; active compounds read low.
As to `CC1COCCN1c1cc(C2(S(C)(=N)=O)CC2)nc(-c2ccnc3[nH]ccc23)n1` (configuration not stated) + Nc1ccc(C#CCN(C(=O)Cc2ncc(C(F)(F)F)cc2C(F)(F)F)c2ccc(F)cc2)nn1, the viability, T/C is 79.2%.
As for `CCCS(=O)(=O)Nc1ccc(F)c(C(=O)c2c[nH]c3ncc(-c4ccc(Cl)cc4)cc23)c1F` + Nc1ccc(C#CCN(C(=O)Cc2ncc(C(F)(F)F)cc2C(F)(F)F)c2ccc(F)cc2)nn1, the viability, T/C is 81.6%.
The same measure, in the same setting: as for `COc1cccc(OCCCN)c1-c1cc(Nc2cnc(C#N)cn2)n[nH]1` + Nc1ccc(C#CCN(C(=O)Cc2ncc(C(F)(F)F)cc2C(F)(F)F)c2ccc(F)cc2)nn1, the figure is 44.5%; as for `O=C(c1cc(Cc2n[nH]c(=O)c3ccccc23)ccc1F)N1CCN(C(=O)C2CC2)CC1` + Nc1ccc(C#CCN(C(=O)Cc2ncc(C(F)(F)F)cc2C(F)(F)F)c2ccc(F)cc2)nn1, 113%.

The experiment is the same for the next values; noted with them: second compound 1 µM; first compound 0.316 µM; active compounds read low.
Take `CC1COCCN1c1cc(C2(S(C)(=N)=O)CC2)nc(-c2ccnc3[nH]ccc23)n1` (configuration not stated) + Nc1ccc(C#CCN(C(=O)Cc2ncc(C(F)(F)F)cc2C(F)(F)F)c2ccc(F)cc2)nn1: the viability, T/C was 95.3%.
On to `CCCS(=O)(=O)Nc1ccc(F)c(C(=O)c2c[nH]c3ncc(-c4ccc(Cl)cc4)cc23)c1F` + Nc1ccc(C#CCN(C(=O)Cc2ncc(C(F)(F)F)cc2C(F)(F)F)c2ccc(F)cc2)nn1, for which the viability, T/C was 129%.
As for `COc1cccc(OCCCN)c1-c1cc(Nc2cnc(C#N)cn2)n[nH]1` + Nc1ccc(C#CCN(C(=O)Cc2ncc(C(F)(F)F)cc2C(F)(F)F)c2ccc(F)cc2)nn1, the viability, T/C is 49%.
The same measure, in the same setting: the same measure for `O=C(c1cc(Cc2n[nH]c(=O)c3ccccc23)ccc1F)N1CCN(C(=O)C2CC2)CC1` + Nc1ccc(C#CCN(C(=O)Cc2ncc(C(F)(F)F)cc2C(F)(F)F)c2ccc(F)cc2)nn1: 94.8%.

The same experiment, now with this note: second compound 1 µM; first compound 1 µM; active compounds read low.
For the compound `CC1COCCN1c1cc(C2(S(C)(=N)=O)CC2)nc(-c2ccnc3[nH]ccc23)n1` (configuration not stated) + Nc1ccc(C#CCN(C(=O)Cc2ncc(C(F)(F)F)cc2C(F)(F)F)c2ccc(F)cc2)nn1, the viability, T/C was 63.2%.
Regarding `CCCS(=O)(=O)Nc1ccc(F)c(C(=O)c2c[nH]c3ncc(-c4ccc(Cl)cc4)cc23)c1F` + Nc1ccc(C#CCN(C(=O)Cc2ncc(C(F)(F)F)cc2C(F)(F)F)c2ccc(F)cc2)nn1, the viability, T/C is 76.2%.
For `COc1cccc(OCCCN)c1-c1cc(Nc2cnc(C#N)cn2)n[nH]1` + Nc1ccc(C#CCN(C(=O)Cc2ncc(C(F)(F)F)cc2C(F)(F)F)c2ccc(F)cc2)nn1, the viability, T/C was 39.5%.
Turning to `O=C(c1cc(Cc2n[nH]c(=O)c3ccccc23)ccc1F)N1CCN(C(=O)C2CC2)CC1` + Nc1ccc(C#CCN(C(=O)Cc2ncc(C(F)(F)F)cc2C(F)(F)F)c2ccc(F)cc2)nn1, the viability, T/C is 102%.

Staying with this experiment, now noted: second compound 1 µM; first compound 3.16 µM; active compounds read low.
As for `CC1COCCN1c1cc(C2(S(C)(=N)=O)CC2)nc(-c2ccnc3[nH]ccc23)n1` (configuration not stated) + Nc1ccc(C#CCN(C(=O)Cc2ncc(C(F)(F)F)cc2C(F)(F)F)c2ccc(F)cc2)nn1, the viability, T/C is 58.6%.
With `CCCS(=O)(=O)Nc1ccc(F)c(C(=O)c2c[nH]c3ncc(-c4ccc(Cl)cc4)cc23)c1F` + Nc1ccc(C#CCN(C(=O)Cc2ncc(C(F)(F)F)cc2C(F)(F)F)c2ccc(F)cc2)nn1, the viability, T/C was 63.3%.
With `O=C(c1cc(Cc2n[nH]c(=O)c3ccccc23)ccc1F)N1CCN(C(=O)C2CC2)CC1` + Nc1ccc(C#CCN(C(=O)Cc2ncc(C(F)(F)F)cc2C(F)(F)F)c2ccc(F)cc2)nn1, the viability, T/C was 85.2%.

The same experiment, now with this note: second compound 1 µM; first compound 10 µM; active compounds read low.
Take `CC1COCCN1c1cc(C2(S(C)(=N)=O)CC2)nc(-c2ccnc3[nH]ccc23)n1` (configuration not stated) + Nc1ccc(C#CCN(C(=O)Cc2ncc(C(F)(F)F)cc2C(F)(F)F)c2ccc(F)cc2)nn1: the viability, T/C is 42.8%.
With `CCCS(=O)(=O)Nc1ccc(F)c(C(=O)c2c[nH]c3ncc(-c4ccc(Cl)cc4)cc23)c1F` + Nc1ccc(C#CCN(C(=O)Cc2ncc(C(F)(F)F)cc2C(F)(F)F)c2ccc(F)cc2)nn1, the viability, T/C is 49.4%.
On to `O=C(c1cc(Cc2n[nH]c(=O)c3ccccc23)ccc1F)N1CCN(C(=O)C2CC2)CC1` + Nc1ccc(C#CCN(C(=O)Cc2ncc(C(F)(F)F)cc2C(F)(F)F)c2ccc(F)cc2)nn1, for which the viability, T/C was 67.6%.

The same experiment, now with this note: second compound 3.16 µM; first compound 0.00316 µM; active compounds read low.
Consider `COc1cccc(OCCCN)c1-c1cc(Nc2cnc(C#N)cn2)n[nH]1` + Nc1ccc(C#CCN(C(=O)Cc2ncc(C(F)(F)F)cc2C(F)(F)F)c2ccc(F)cc2)nn1, for which the viability, T/C is 76.8%.

The same experiment, now with this note: second compound 3.16 µM; first compound 0.01 µM; active compounds read low.
Consider `COc1cccc(OCCCN)c1-c1cc(Nc2cnc(C#N)cn2)n[nH]1` + Nc1ccc(C#CCN(C(=O)Cc2ncc(C(F)(F)F)cc2C(F)(F)F)c2ccc(F)cc2)nn1, for which the viability, T/C is 76.7%.

Still in this experiment, the particulars now being: second compound 3.16 µM; first compound 0.0316 µM; active compounds read low.
For `CC1COCCN1c1cc(C2(S(C)(=N)=O)CC2)nc(-c2ccnc3[nH]ccc23)n1` (configuration not stated) + Nc1ccc(C#CCN(C(=O)Cc2ncc(C(F)(F)F)cc2C(F)(F)F)c2ccc(F)cc2)nn1, the viability, T/C was 81.7%.
As to `CCCS(=O)(=O)Nc1ccc(F)c(C(=O)c2c[nH]c3ncc(-c4ccc(Cl)cc4)cc23)c1F` + Nc1ccc(C#CCN(C(=O)Cc2ncc(C(F)(F)F)cc2C(F)(F)F)c2ccc(F)cc2)nn1, the viability, T/C was 93.7%.
Still for that read-out and setting: the same measure for `COc1cccc(OCCCN)c1-c1cc(Nc2cnc(C#N)cn2)n[nH]1` + Nc1ccc(C#CCN(C(=O)Cc2ncc(C(F)(F)F)cc2C(F)(F)F)c2ccc(F)cc2)nn1: 47.7%; for `O=C(c1cc(Cc2n[nH]c(=O)c3ccccc23)ccc1F)N1CCN(C(=O)C2CC2)CC1` + Nc1ccc(C#CCN(C(=O)Cc2ncc(C(F)(F)F)cc2C(F)(F)F)c2ccc(F)cc2)nn1: 104%.

For the origin of these results see PubChem BioAssay AID1963831 (Molecular Pharmacology Branch, DTP, NCI, 2024).
